Test results published in ChEMBL document CHEMBL5233273, “An overview of hydroxypyranone and hydroxypyridinone as privileged scaffolds for novel drug discovery” (Eur J Med Chem, 2021).
In brackets after ≈: the same amount, converted by molar mass.

Key:
Enterococcus faecalis [1] = assay: Antibacterial activity against Enterococcus faecalis; type: functional
Pichia kudriavzevii = assay: Antifungal activity against Candida krusei ATCC 6258; type: functional
Staphylococcus aureus [2] = assay: Antibacterial activity against Staphylococcus aureus; type: functional
Escherichia coli [3] = assay: Antibacterial activity against Escherichia coli; type: functional
Bacillus subtilis [4] = assay: Antibacterial activity against Bacillus subtilis assessed as zone of inhibition; type: functional
Staphylococcus aureus [5] = assay: Antibacterial activity against Staphylococcus aureus assessed as zone of inhibition; type: functional
Escherichia coli [6] = assay: Antibacterial activity against Escherichia coli ATCC 35218; type: functional
Mycobacterium avium = assay: Antitubercular activity against Mycobacterium avium ATCC 15769; type: functional
Pseudomonas aeruginosa = assay: Antibacterial activity against Pseudomonas aeruginosa ATCC 10145; type: functional
Acinetobacter baumannii = assay: Antibacterial activity against Acinetobacter baumannii i RSKK 02026; type: functional
Candida albicans = assay: Antifungal activity against Candida albicans ATCC10231; type: functional
Proteus mirabilis = assay: Antibacterial activity against Proteus mirabilis ATCC 7002; type: functional
Candida parapsilosis = assay: Antifungal activity against […]; type: functional; settings: Lodderomyces parapsilosis
Klebsiella pneumoniae = assay: Antibacterial activity against Klebsiella pneumoniae RSKK 574; type: functional
[7] = tested on: Mycobacterium tuberculosis; assay: Antitubercular activity against Mycobacterium tuberculosis H37Rv ATCC 27294; type: functional
Candida tropicalis = assay: Antifungal activity against Candida tropicalis ATCC 13803; type: functional
A549 = assay: Cytotoxicity against human A549 cells; type: functional, cell-based
MCF7 = assay: Cytotoxicity against human MCF7 cells; type: functional, cell-based
DU-145 = assay: Cytotoxicity against human DU-145 cells; type: functional, cell-based
HeLa = assay: Cytotoxicity against human HeLa cells; type: functional, cell-based
[8] = Antiinflammatory activity in macrophages assessed as reduction in LPS-induced NO production; type: functional, cell-based; settings: Macrophage
Bacillus subtilis [9] = assay: Antibacterial activity against Bacillus subtilis ATCC 6633; type: functional
Enterococcus faecalis [10] = assay: Antibacterial activity against Enterococcus faecalis ATCC 29212; type: functional
Staphylococcus aureus [11] = assay: Antibacterial activity against Staphylococcus aureus ATCC 25923; type: functional
Saccharomyces cerevisiae = assay: Antifungal activity against Saccharomyces cerevisiae; type: functional
Aspergillus niger = assay: Antifungal activity against Aspergillus niger; type: functional
[12] = target: Amine oxidase [flavin-containing] B (Homo sapiens, UniProt P27338); assay: Inhibition of human MAO-B
Sequence of Amine oxidase [flavin-containing] B (P27338 whole entry): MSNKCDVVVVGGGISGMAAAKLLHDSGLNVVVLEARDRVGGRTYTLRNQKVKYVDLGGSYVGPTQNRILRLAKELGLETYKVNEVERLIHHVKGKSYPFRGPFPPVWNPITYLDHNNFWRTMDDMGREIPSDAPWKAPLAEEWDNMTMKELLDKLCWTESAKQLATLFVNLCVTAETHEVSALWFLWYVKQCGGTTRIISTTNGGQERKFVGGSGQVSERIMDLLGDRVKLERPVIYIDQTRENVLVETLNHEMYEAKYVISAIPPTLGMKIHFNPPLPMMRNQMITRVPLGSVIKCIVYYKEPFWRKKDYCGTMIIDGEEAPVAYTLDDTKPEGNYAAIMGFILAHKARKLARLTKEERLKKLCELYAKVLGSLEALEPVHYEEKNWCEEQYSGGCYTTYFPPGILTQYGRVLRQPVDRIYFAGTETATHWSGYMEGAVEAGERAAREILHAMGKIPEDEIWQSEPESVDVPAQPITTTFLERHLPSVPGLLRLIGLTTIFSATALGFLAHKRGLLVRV

## Cc1cc(=O)c(O)c(C(=O)Nc2ccc3c(C)cc(=O)oc3c2)o1
Enterococcus faecalis [1]
  MIC: 8 µg/mL (≈ 24.4 µM)
Pichia kudriavzevii
  MIC: 4 µg/mL (≈ 12.2 µM)
Staphylococcus aureus [2]
  MIC: 8 µg/mL (≈ 24.4 µM)
Escherichia coli [3]
  MIC: 8 µg/mL (≈ 24.4 µM)

## N#CC(C(=O)c1c[nH]c2ccccc12)C(c1ccc(Cl)cc1)c1oc(CO)cc(=O)c1O (configuration not stated)
Bacillus subtilis [4]
  inhibition zone (IZ): 19.5 mm
Staphylococcus aureus [5]
  inhibition zone (IZ): 22 mm

## O=c1cc(CCl)oc(CN2CCN(c3ccccc3)CC2)c1O
Escherichia coli [6]
  MIC: 8 µg/mL (≈ 23.9 µM)
Mycobacterium avium
  MIC: 4 µg/mL (≈ 11.9 µM)
Pseudomonas aeruginosa
  MIC: 8 µg/mL (≈ 23.9 µM)
Pichia kudriavzevii
  MIC: 8 µg/mL (≈ 23.9 µM)
Acinetobacter baumannii
  MIC: 8 µg/mL (≈ 23.9 µM)
Candida albicans
  MIC: 8 µg/mL (≈ 23.9 µM)
Proteus mirabilis
  MIC: 8 µg/mL (≈ 23.9 µM)
Candida parapsilosis
  MIC: 8 µg/mL (≈ 23.9 µM)
Klebsiella pneumoniae
  MIC: 8 µg/mL (≈ 23.9 µM)
[7]
  MIC: 4 µg/mL (≈ 11.9 µM)
Candida tropicalis
  MIC: 8 µg/mL (≈ 23.9 µM)

## CC(C)(C)[Si](C)(C)OCc1cc(=O)c(O)c(C(C[N+](=O)[O-])c2ccc(Cl)cc2)o1 (configuration not stated)
A549
  IC50: 18 µM
MCF7
  IC50: 18 µM
DU-145
  IC50: 16 µM
HeLa
  IC50: 11 µM

## O=c1cc(CSc2ccc(Cl)cc2)occ1O
[8]
  IC50: 23.9 µM

## O=c1cc(CCl)oc(CN2CCN(Cc3ccc(C(F)(F)F)cc3)CC2)c1O
Escherichia coli [6]
  MIC: 8 µg/mL (≈ 19.2 µM)
Bacillus subtilis [9]
  MIC: 4 µg/mL (≈ 9.6 µM)
Mycobacterium avium
  MIC: 4 µg/mL (≈ 9.6 µM)
Pseudomonas aeruginosa
  MIC: 8 µg/mL (≈ 19.2 µM)
Enterococcus faecalis [10]
  MIC: 4 µg/mL (≈ 9.6 µM)
Acinetobacter baumannii
  MIC: 8 µg/mL (≈ 19.2 µM)
Proteus mirabilis
  MIC: 8 µg/mL (≈ 19.2 µM)
Staphylococcus aureus [11]
  MIC: 4 µg/mL (≈ 9.6 µM)
Klebsiella pneumoniae
  MIC: 8 µg/mL (≈ 19.2 µM)
[7]
  MIC: 4 µg/mL (≈ 9.6 µM)

## CO[C@@H]1O[C@H](COCc2cc(=O)c(O)co2)[C@@H](C)[C@H](OCc2cc(=O)c(O)co2)[C@H]1N
Saccharomyces cerevisiae
  MIC: 1040 µg/mL (≈ 2370 µM)
Aspergillus niger
  MIC: 1040 µg/mL (≈ 2370 µM)
Staphylococcus aureus [2]
  MIC: 1040 µg/mL (≈ 2370 µM)
Escherichia coli [3]
  MIC: 1040 µg/mL (≈ 2370 µM)

## CCc1c(O)c(=O)cc(C)n1CCCn1cc(COc2ccc3ccc(=O)oc3c2)nn1
[12]
  IC50: 0.68 µM
